Consider two compounds from patent publication US5563149A, “Aqueous solutions of pyridone carboxylic acids” (Cheil Foods & Chemicals, Inc., priority 1994, dated 1996).

The subject of data set [1] is gram-negative and gram-positive bacteria. In words: in vitro antibacterial activity (gram-negative and gram-positive bacteria). It is filed as cell-based.
Data set [2] is described as follows: Solubility of compound A in water with added acid or amino acid, and pH of the saturated solution. The class given is physicochemical. Particulars: for solubility at 4 h: water, per ml of water. Here is the method:
The organic acids suitable as solubilizing agents are chosen depending on the correlationship between the organic acid and the physical properties of the selected quinolone compound. Therefore, a varity of organic acids and amino acids were evaluated to determine whether certain acids are suitable as solubilizing agents capable of increasing the water solubility of compound A and the pH of the aqueous solution is suitable for injection and/or infusion solutions.
Exemplary active substance in practicing the present invention is compound A. The test method of the solubility is set forth as follows:
Compound A was mixed with an organic acid or an amino acid in the mole ratios between 0.5 and 6 before water was added with reflux. Then, the resulting solution was rigorously shaken with stirring for 5 minutes so that it was made homogeneous. After the homogenous solution was left to stand at elevated temperature for 4 hours, it was extracted through 0.45 micro of membrane filter. The amounts of active substances present in extracts were quantified by high pressure liquid chromatography.

A short description of data set [3]: bioavailability and half-life. Particulars: compared with quinolone drugs commercially available or in development. It is filed as in vivo.
Data set [4] in a line: solubility in water (without solubilizing agent). The class given is physicochemical. Particulars: no acid added.
The conditions of data set [5]: with asparagine, glutamic acid or gluconic acid; Korean Patent Application Publication No. 89-2040; cited from earlier work.

Converted amounts (≈) assume the structure as drawn.

One may read the solubility as the concentration that dissolves in the medium under given conditions. Lower therefore signals a poorly soluble substance. In the case of `C[C@]12C[C@@H](N)[C@H]1CN(c1nc3c(cc1F)c(=O)c(C(=O)O)cn3C1CC1)C2` (relative stereo) [compound A, 1-cyclopropyl-6-fluoro-l,4-dihydro-4-oxo-7-([1α, 5α,6β]6-amino-1-methyl-3-azabicyclo[3.2.0]heptan-3-yl)-1,8-naphtyridine-3-carboxylic acid], the “antibacterial activities compared with Lomefloxacin and Ofloxacin” value in data set [1] is listed as “superior”. Moreover, the “pH of saturated solution” value in data set [2] (compound A with Alanine) was found to be 6.4; in data set [2] (compound A with Arginine), 10.0; in data set [2] (compound A with Asparagine), 6.2; in data set [2] (compound A with Aspartic acid), 5.3; in data set [2] (compound A with Cinnamic acid), 1.8; in data set [2] (compound A with Galacturonic (acid)), 3.3. Moreover, the “pH of saturated solution” value stood at 3.3 in data set [2] (compound A with Gluconic acid); 3.6 in data set [2] (compound A with Gluconic acid lactone); 6.4 in data set [2] (compound A with Glutamine); 3.8 in data set [2] (compound A with Glutaric acid); 7.6 in data set [2] (compound A with Histidine); 2.0 in data set [2] (compound A with Hydrochloric acid). Besides, the “pH of saturated solution” value is given as 6.4 in data set [2] (compound A with Isoleucine); 6.2 in data set [2] (compound A with L-cysteine); 6.4 in data set [2] (compound A with L-valine); 3.4 in data set [2] (compound A with Malic acid); 6.4 in data set [2] (compound A with Methionine); 4.2 in data set [2] (compound A with Oxalic acid). Besides, the “pH of saturated solution” value in data set [2] (compound A with Succinic acid) is 4.0; in data set [2] (compound A with Threonine), 6.3. The solubility at 4 h in data set [2] (with Alanine) is 1300 µg/mL (≈ 3.49 mM); in data set [2] (with Arginine) it was 8200 µg/mL (≈ 22 mM); in data set [2] (with Asparagine) it was 2100 µg/mL (≈ 5.64 mM); in data set [2] (with Aspartic acid), 37600 µg/mL (≈ 101 mM); in data set [2] (with Cinnamic acid), 2100 µg/mL (≈ 5.64 mM); in data set [2] (with Galacturonic (acid)) it was 18300 µg/mL (≈ 49.1 mM). Moreover, the solubility at 4 h worked out at 28100 µg/mL (≈ 75.5 mM) in data set [2] (with Gluconic acid lactone); 33400 µg/mL (≈ 89.7 mM) in data set [2] (with Gluconic acid); 1600 µg/mL (≈ 4.3 mM) in data set [2] (with Glutamine); 12100 µg/mL (≈ 32.5 mM) in data set [2] (with Glutaric acid); 2100 µg/mL (≈ 5.64 mM) in data set [2] (with Histidine); 44300 µg/mL (≈ 119 mM) in data set [2] (with Hydrochloric acid). The solubility at 4 h stood at 1400 µg/mL (≈ 3.76 mM) in data set [2] (with Isoleucine); 2300 µg/mL (≈ 6.18 mM) in data set [2] (with L-cysteine); 1300 µg/mL (≈ 3.49 mM) in data set [2] (with L-valine); 48700 µg/mL (≈ 131 mM) in data set [2] (with Malic acid); 1500 µg/mL (≈ 4.03 mM) in data set [2] (with Methionine); 3500 µg/mL (≈ 9.4 mM) in data set [2] (with Oxalic acid). In addition, the solubility at 4 h in data set [2] (with Succinic acid) worked out at 47600 µg/mL (≈ 128 mM); in data set [2] (with Threonine), 1500 µg/mL (≈ 4.03 mM). The “solubility of compound A / pH of the resulting solution (in words)” value in data set [2] (with glutaric acid, cinnamic acid, galacturonic acid, glutamine, isoleusine, threonine, histidine, L-cysteine, alanine, arginine, L-valine, methionine or oxaline) is reported as “did not substantilly improve the solubility of compound A or the pH of the resulting solution is unsuitable as injection and/or infusion solutions”. Besides, the bioavailability entry in data set [3] is “better”. Besides, the half-life result in data set [3] is “better”. Besides, the solubility in water entry in data set [4] is reported as “not substantially soluble or little soluble in water”.

As to `CCn1cc(C(=O)O)c(=O)c2cc(F)c(N3CCNCC3)nc21` [Enoxacin], the deposits in solutions entry in data set [5] is listed as “do not lead to deposits”.
